According to patent US20210379046A1, “Methods of Treating Diseases Using Kinase Modulators” (Memorial Sloan Kettering Cancer Center, priority 2018, published 2021):

How the values were obtained:
Karpas 299 cells = test: Flow cytometry of cell surface HLA and checkpoint ligands on Karpas 299 cells; type: cell-based, human
Method: (§1) If adherent cells, they were seeded one day before treatment.

SUDHL-1 cells = test: Flow cytometry of cell surface HLA on SUDHL-1 cells; type: cell-based, human; settings: SUDHL-1, 72 hrs, increasing concentrations
Method: as §1

pERK in Karpas 299 cells = test: Western blot of pERK in Karpas 299 cells; type: cell-based, human; settings: Karpas 299, 3 hrs
Method: (§2) Cells were seeded in a 60 mm dish or 6 well plates. After the appropriate time point, cells were harvested and lysed and protein was quantified by a Lowry assay (Bio-Rad DC Protein Assay; #5000116). Protein levels were normalized and run on SDS PAGE gels (Bio-Rad). Protein was transferred to a nitrocellulose membrane using semi-dry transfer. Membrane was blocked and incubated with respective antibodies. When needed, secondary antibodies with HRP were incubated for 1 hr.
(§3) Cells were seeded in a 60 mm dish or 6 well plates. After the appropriate time point, cells were harvested, lysed in RIPA buffer (Thermo Instruments) and protein concentration was quantified by a Lowry assay (using the Bio-Rad DC Protein Assay; #5000116 on a Spectramax device from Molecular Devices). Protein loading levels were equalized per lane and separated on SDS gels (Bio-Rad). Protein was transferred to a nitrocellulose membrance using semi-dry transfer (BioRad). Membranes were blocked with Omniblock (American Bio) and incubated with respected antibodies. When needed, secondary antibodies with HRP were incubated for 1 hr.

pERK in SUDHL-1 cells = test: Western blot of pERK in SUDHL-1 cells; type: cell-based, human; settings: SUDHL-1, 3 hrs
Method: as §2, §3

Karpas 299 tumors = test: Karpas 299 subcutaneous tumors in mice, tumor HLA and PD-L1 by flow cytometry; type: in vivo
Method: Female NSG (NOD.Cg-Prkdc^scidIl2rg^tm1Wj1/SzJ) and NRG (NOD.Cg-Rag1^tm1MomIl2rg^tm1Wj1/SzJ) mice were purchased from the Jackson Laboratory or MSKCC breeding facility at 5-10 weeks old. For RET and ALK experiments, 2.5-6×10^6 tumor cells were subcutaneously injected into the flank of mice and when tumors were palpable, mice were treated daily with drug or vehicles through oral gavage. At day 7, tumors were harvested and flow cytometry was run to determine effect of inhibitors on HLA and PD-L1 on the tumor cells.
The highly immunodeficient NRG (NOD-Rag1null IL2rgnull) mice were subcutaneously injected with 2.5×10^6 luciferase tagged TPC1 cells in their right flank. […] Afterwards, cells were immediately harvested and stained with antibodies against HLA-A*02:01 and HLA-ABC.
All animal experiments were conducted in accordance with and the approval of the MSKCC IACUC (Institutional Animal Care and Use Committee) protocols. Female NSG (NOD. Cg-Prkdc^scidIl2rg^tm1Wj1/SzJ) and NRG (NOD.Cg-Rag1^tm1MomIl2rg^tm1Wj1/SzJ) mice were purchased from the Jackson Laboratory at 5-10 weeks old. For experiments in vivo with RET and ALK, 2.5-6×10^6 tumor cells in PBS were subcutaneously injected into the flank of mice. When tumors were palpable (2-3 mm), mice were treated daily with drugs or vehicles through oral gavage of drugs in 200 ul of water. At day 4 or 7, tumors were harvested and flow cytometry was conducted to determine the effect of inhibitors on HLA and PD-L1 on the tumor cells. […] TPC1 cells were transduced with luciferase and GFP on an SFG vector and this allowed gating of the tumor cells in flow cytometry.

Karpas299 cells = test: Luminex cytokine secretion, Karpas299 cells; type: cell-based, human; settings: Karpas299, 100 nm alectinib
Method: Supernatant media were harvested after treatment and analyzed by the Luminex device (Luminex Corporation, Austin, Tex.) for relevant cytokine secretion. […] On the left side of each panel is data after 24 hours. On the right side of each panel is data after 48 hours. […] The data points shown in this figure are in pairs for each condition. The data point pairs for each time point are, from left to right: DMSO, Rux, Alec, IFNg, and IFNg+Rux.

SUP-M2 cells = test: PD-L1 levels in vitro on SUP-M2 cells
Method: 5×10^4 cells were seeded in a 12 well plate and treated with drug for 72 hrs. Adherent cells were seeded one day before treatment. At 72 hrs, cells were harvested, washed with PBS and incubated on ice with appropriate fluorophore conjugated antibodies diluted in FACS buffer for 1 hr. Gating strategy: Cells were then washed and incubated 30 min with a viability dye (propidium iodide at 1 ug/mL) and live cells only were analyzed by on a Guava flow cytometer with FlowJo software.

TPC1 cells [1] = test: Flow cytometry of cell surface HLA and checkpoint ligands on TPC1 cells; type: cell-based, human; settings: TPC1, 100 nM, 72 hours
Method: as §1

TPC1 cells [2] = test: Mass spectrometry of eluted HLA class I presented peptides, TPC1 cells; type: cell-based, human
Method: After 72 hrs, cells were harvested, washed, lysed. The lysate was run through an activated Sepharose-CNBr column coupled to the W6/32 antibody to bind HLA-A,B,C from the cell. The peptides bound by those HLAs and captured on the column were then eluted and mass spectrometry was run on those peptides.
Immunopurification affinity columns were prepared as described previously (Bassani-Sternberg et al., 2015, Mol Cell Proteomics 14(3):658-673). In brief, 40 mg of Cyanogen bromide-activated-Sepharose® 4B (Sigma-Aldrich, Cat #C9142) was activated with 1 mM hydrochloric acid (Sigma-Aldrich, Cat #320331) for 30 min. Subsequently, 0.5 mg of W6/32 antibody (BioXCell, BE0079; RRID: AB 1107730) was coupled to sepharose in presence of binding buffer (150 mM sodium chloride, 50 mM sodium bicarbonate, pH 8.3; sodium chloride: Sigma-Aldrich, Cat #S9888, sodium bicarbonate: Sigma-Aldrich, Cat #56014) for at least 2 hours at room temperature. Sepharose was blocked for 1 h with glycine (Sigma-Aldrich, Cat #410225). Columns were equilibrated with PBS for 10 min. […]. Afterwards, cells were lysed in 1 ml 1% CHAPS (Sigma-Aldrich, Cat #C3023) in PBS, supplemented with 1 tablet of protease inhibitors (cOmplete, Cat #11836145001) for 1 hour at 4° C. This lysate was spun down for 1 hour at 20,000 g at 4° C. Supernatant was run over the affinity column through peristaltic pumps at 1 ml/min overnight at 4° C. Affinity columns were washed with PBS for 15 min, run dry, and HLA complexes subsequently eluted three times with 200 μl 1% trifluoracetic acid (TFA, Sigma/Aldrich, Cat #02031). For separation of HLA ligands from their HLA complexes tC18 columns (Sep-Pak tC18 1 cc VacCartridge, 100 mg Sorbent per Cartridge, 37-55 μm Particle Size, Waters, Cat #WAT036820) were prewashed with 80% acetonitrile (ACN, Sigma-Aldrich, Cat #34998) in 0.1% TFA and equilibrated with two washes of 0.1% TFA. Samples were loaded, washed again with 0.1% TFA and eluted in 400 μl 30% ACN in 0.1% TFA. Sample volume was reduced by vacuum centrifugation for mass spectrometry analysis.
Samples were analyzed by a high resolution/high accuracy LC-MS/MS (Lumos Fusion, Thermo Fisher). Peptides were desalted using ZipTips (Sigma Millipore, Cat. #ZTC18S008) according to manufactures instructions and concentrated using vacuum centrifugation prior to being separated using direct loading onto a packedin-emitter C18 column (75 um ID/12 cm, 3 μm particles, Nikkyo Technos Co., Ltd. Japan). The gradient was delivered at 300 nl/min increasing linear from 2% Buffer B (0.1% formic acid in 80% acetonitrile)/98% Buffer A (0.1% formic acid) to 30% Buffer B/70% Buffer A, over 70 minutes. MS and MS/MS were operated at resolutions of 60,000 and 30,000, respectively. Only charge states 1, 2 and 3 were allowed. 1.6 Th was chosen as the isolation window and the collision energy was set at 30%. For MS/MS, the maximum injection time was 100 ms with an AGC of 50,000.
Mass spectrometry data was processed using Byonic software (version 2.7.84, Protein Metrics, PaloAlto, Calif.) through a custom-built computer server equipped with 4 Intel Xeon E5-4620 8-core CPUs operating at 2.2 GHz, and 512 GB physical memory (Exxact Corporation, Freemont, Calif.). Mass accuracy for MS1 was set to 10 ppm and to 20 ppm for MS2, respectively. Digestion specificity was defined as unspecific and only precursors with charges 1, 2, and 3 and up to 2 kDa were allowed. Protein FDR was disabled to allow complete assessment of potential peptide identifications. Oxidization of methionine, N-terminal acetylation, phosphorylation of serine, threonine and tyrosine were set as variable modifications for all samples. All samples were searched against the UniProt Human Reviewed Database (20,349 entries, uniprot.org, downloaded June 2017). […]

TPC1 cells [3] = test: RNA-seq of TPC1 cells after RET inhibitor treatment; type: cell-based, human; settings: TPC1, 72 hours
Method: Purified polyA mRNA was subsequently fragmented, and first and second strand cDNA synthesis performed using standard Illumina mRNA TruSeq library preparation protocols. Double stranded cDNA was subsequently processed for TruSeq dual-index Illumina library generation. For sequencing, pooled multiplexed libraries were run on a HiSeq 2500 machine on RAPID mode. Approximately 10 million 76 bp single-end reads were retrieved per replicate condition. Resulting RNA-Seq data was analyzed by removing adaptor sequences using Trimmomatic, aligning sequencing data to GRCh37.75(hg19) with STAR, and genome wide transcript counting using HTSeq to generate a RPKM matrix of transcript counts. This RPKM matrix was further log (log 2) transformed and normalized per gene to obtain the Z-score. Differential gene expression was analyzed by looking at fold changes between experimental conditions.

[4] = Karpas 299 tumors, daily oral gavage
[5] = TPC1, 10 nM AST487 or 100 nM cabozantinib

CCc1cc2c(cc1N1CCC(N3CCOCC3)CC1)C(C)(C)c1[nH]c3cc(C#N)ccc3c1C2=O [alectinib]
PD-L1 levels in vitro (Karpas 299 cells; Karpas 299): dramatic decreases in PD-L1 were seen in vitro | surface HLA-E levels (Karpas 299 cells; Karpas 299): did not change | cell surface HLA-A,B,C (Karpas 299 cells; Karpas 299, 72 hrs, increasing concentrations): upregulates cell surface HLA | HLA-A02 (BB7-FITC) surface level (Karpas 299 cells; Karpas299, alectinib 100 nM, 72 hours): led to upregulation of HLA | cell surface HLA-A,B,C (SUDHL-1 cells): upregulates cell surface HLA | pERK levels (pERK in Karpas 299 cells): shut down pERK expression | pERK levels (pERK in SUDHL-1 cells): shut down pERK expression | drop of PD-L1 (Karpas 299 tumors; Karpas 299 tumors in NSG mice): approximately 75% | tumor PD-L1 levels in vivo (Karpas 299 tumors; [4]): PD-L1 decreased with increasing doses | tumor cell surface HLA-A,B,C in vivo (Karpas 299 tumors; [4]): increased modestly in a dose-dependent manner | IFNα, IFNγ, IL4 secretion (Karpas299 cells): had no effect on IFNα, IFNγ, IL4 | IL6 and TNFα secretion (Karpas299 cells): reduced IL6 and TNFα secretion | PD-L1 levels in vitro (SUP-M2 cells): dramatic decreases in PD-L1 were seen in vitro

COc1cc2nccc(Oc3ccc(NC(=O)C4(C(=O)Nc5ccc(F)cc5)CC4)cc3)c2cc1OC [cabozantinib]
increase in surface HLA (pan-HLA) (TPC1 cells [1]): ~4 fold | increase in surface HLA-A*02 (TPC1 cells [1]): 4 fold | runs TEIPP peptide was found in (n = 3) (TPC1 cells [2]; ALFSFVTAL (SEQ ID NO: 11)): 0 | runs TEIPP peptide was found in (n = 3) (TPC1 cells [2]; FLGPWPAAS (SEQ ID NO: 12)): 1 | runs TEIPP peptide was found in (n = 3) (TPC1 cells [2]; FLSELQYYL (SEQ ID NO: 13)): 0 | runs TEIPP peptide was found in (n = 3) (TPC1 cells [2]; FLYPFLSHL (SEQ ID NO: 14)): 0 | runs TEIPP peptide was found in (n = 3) (TPC1 cells [2]; ILEYLTAEV (SEQ ID NO: 15)): 0 | runs TEIPP peptide was found in (n = 3) (TPC1 cells [2]; LLALAAGLAV (SEQ ID NO: 16)): 0 | runs TEIPP peptide was found in (n = 3) (TPC1 cells [2]; LLLDVPTAAV (SEQ ID NO: 17)): 1 | runs TEIPP peptide was found in (n = 3) (TPC1 cells [2]; LLLSAEPVPA (SEQ ID NO: 18)): 0 | runs TEIPP peptide was found in (n = 3) (TPC1 cells [2]; LLWGRQLFA (SEQ ID NO: 19)): 0 | runs TEIPP peptide was found in (n = 3) (TPC1 cells [2]; LSEKLERI (SEQ ID NO: 20)): 0 | runs TEIPP peptide was found in (n = 3) (TPC1 cells [2]; LTLLGTLWGA (SEQ ID NO: 21)): 0 | runs TEIPP peptide was found in (n = 3) (TPC1 cells [2]; SVLWLGALGL (SEQ ID NO: 22)): 0 | runs TEIPP peptide was found in (n = 3) (TPC1 cells [2]; TLLGASLPA (SEQ ID NO: 23)): 0 | new peptides (only peptides found in all three runs counted) (TPC1 cells [2]; [5]): 492 | unique peptides not present in the DMSO group (found in at least one run) (TPC1 cells [2]; [5]): 1642 | unique ligands presented (TPC1 cells [2]; TPC1, 10 nM AST487 or 100 nM cabozantinib, three runs pooled, DMSO 4211): 4850 | increase in unique peptides vs DMSO (TPC1 cells [2]; TPC1, three runs pooled): 15% | unique HLA ligands detected in all 3 runs (TPC1 cells [2]; TPC1, DMSO 195): 639 | runs TEIPP peptide was found in (n = 3) (TPC1 cells [2]; VIIKPLVWV (SEQ ID NO: 24)): 0 | runs TEIPP peptide was found in (n = 3) (TPC1 cells [2]; VLAVFIKAV (SEQ ID NO: 25)): 0 | runs TEIPP peptide was found in (n = 3) (TPC1 cells [2]; VLLDHLSLA (SEQ ID NO: 26)): 0 | genes upregulated at least two-fold (TPC1 cells [3]): 50
